Like-named read-outs stand apart in the source and are kept apart here. Marks after values point to notes of the source that are not given here.
Tests used:
[1] = test system: influenza virus A/Puerto Rico/8/34 (H1N1); test: Antiviral (cytoprotective) activity in MDCK cells, MTT; assay type: cell-based
MDCK cells = test: Cytotoxicity in MDCK cells (MTT, CC50); conditions: uninfected MDCK cells, 48 h
[2] = test system: DU145, A549, VA-13, HEK293, EMT6; test: Initial cytotoxicity testing (MTT test), all cell lines together; assay type: cell-based; conditions: for IC50: after 72 h, read-out: IC50 on all cells
Description: (§1) Colon cancer (HCT116, HT29), breast cancer (MCF7, SKBR3), melanoma (SK-MEL28), lung cancer (A549), prostate cancer (DU145), human normal cells (VA-13 and HEK293), and murine mammary cell lines (EMT6) were purchased from ATCC (Manassas, VA, USA). Cells were routinely grown in RPMI 1640 culture medium, supplemented with 10% fetal bovine serum, glutamine, and 100 U/mL penicillin. HCT116, HT29, MCF7, SKBR3, SK-MEL28, A549, DU145, VA-13, HEK293, and EMT6 cells were grown in flasks in RPMI 1640 fresh culture medium with supplements at 37 °C and 5% CO2. Cells were grown as monolayer cultures, and the cells in the exponential growth phase were trypsinized and suspended in the supplemented RPMI 1640 medium.
(§2) To evaluate the cytotoxicity of the compounds, we placed cells in (20–30) × 10^3 cells/mL concentrations in 96-well culture plates for 24 h. Cells were counted after treatment with Trypan blue solution (0.4%). They were then exposed to two different concentrations of compounds 16–30 (50–100 µM) dilutions in pre-incubated cells at 37 °C for 72 h. In control wells with untreated cells, only (DMSO + PBS) was added. Cell viability was measured by the standard MTT test. The stock solutions of each compound were prepared in DMSO following by preparation of serial dilutions in PBS.
(§3) The absorbance was measured at 540 nm using a Multiskan™ FC microplate photometer and the Skanlt software 6.1 RE for microplate reader, both from Thermo Scientific (Waltham, MA, USA). Experiments were carried out in triplicate; to perform the statistical analysis, more concentrations should be evaluated.

HCT116 = test: IC50 determination (MTT test), HCT116; assay type: cell-based, human; conditions: 72 h; for IC50: Homo sapiens, HCT-116, colon cancer; for IC50 HCT116: colon cancer
Description: as §1
(§4) To evaluate the cytotoxicity of the SDE-series in vitro, we placed cells in (15–30) × 10^3 cells/mL concentrations in 96-well culture plates for 24 h. Cells were counted after treatment with Trypan blue solution (0.4%). After 24 h, the cells were exposed to six tested concentrations of SDE-series (50–1.5 µM) dilutions to pre-incubated cells at 37 °C for 72 h. In control wells with untreated cells, only (DMSO + PBS) was added. Cell viability was measured by the standard MTT test. The absorbance was measured at 540 nm using a Multiskan™ FC microplate photometer and the Skanlt software 6.1 RE for microplate reader, both from Thermo Scientific (Waltham, MA, USA). In vitro experiments were carried out in triplicate. GraphPad prism version 9.0 was used to determine the IC50. The IC50 data are presented as mean (±) standard deviation (SD).

A549 [3] = test: IC50 determination (MTT test), A549; assay type: cell-based; conditions: Homo sapiens, lung cancer, 72 h
Description: as §1, §4

DU145 [4] = test: Initial cytotoxicity testing (MTT test), DU145; assay type: cell-based, human; conditions: for cytotoxicity DU145: human cancer cell line, MTT, 72 h, two concentrations 50–100 µM; for IC50: Homo sapiens, DU-145, 72 h, read-out: cytotoxicity DU145
Description: as §1, §2, §3

VA-13 = test: Initial cytotoxicity testing (MTT test), VA-13; assay type: cell-based, human; conditions: human healthy cells, MTT, 72 h, two concentrations 50–100 µM
Description: as §1, §2, §3

in vitro = conditions: dog
MCF7 = test: IC50 determination (MTT test), MCF7; assay type: cell-based; conditions: Homo sapiens, breast cancer, 72 h
Description: as §1, §4

SKBR3 = test: IC50 determination (MTT test), SKBR3; assay type: cell-based; conditions: Homo sapiens, SK-BR-3, breast cancer, 72 h
Description: as §1, §4

HEK293 = test: Initial cytotoxicity testing (MTT test), HEK293; assay type: cell-based, human; conditions: human healthy cells, MTT, 72 h, two concentrations 50–100 µM
Description: as §1, §2, §3

A549 [5] = test: Initial cytotoxicity testing (MTT test), A549; assay type: cell-based, human; conditions: for cytotoxicity A549: human cancer cell line, MTT, 72 h, two concentrations 50–100 µM; for IC50: Homo sapiens, A549, 72 h, read-out: cytotoxicity A549
Description: as §1, §2, §3

SK-MEL-28 = test: IC50 determination (MTT test), SK-MEL-28; assay type: cell-based, human; conditions: 72 h; for IC50: Homo sapiens, SK-MEL-28, melanoma; for IC50 SK-MEL-28: melanoma
Description: as §1, §4

HEK-293 = test: IC50 determination (MTT test), HEK-293; assay type: cell-based; conditions: Homo sapiens, HEK293, normal cells, 72 h
Description: as §1, §4

EMT6 = test: Initial cytotoxicity testing (MTT test), EMT6; assay type: cell-based, murine; conditions: for cytotoxicity EMT6: murine mammary cell line, MTT, 72 h, two concentrations 50–100 µM
Description: as §1, §2, §3

DU145 [6] = test: IC50 determination (MTT test), DU145; assay type: cell-based; conditions: Homo sapiens, DU-145, prostate cancer, 72 h
Description: as §1, §4

HT-29 = test: IC50 determination (MTT test), HT-29; assay type: cell-based; conditions: Homo sapiens, colon cancer, 72 h
Description: as §1, §4

[7] = Initial cytotoxicity testing (MTT test), VA-13; assay type: cell-based, human; conditions: human healthy cells, MTT, 72 h, two concentrations 50–100 µM
Description: as §1, §2, §3

[8] = Initial cytotoxicity testing (MTT test), HEK293; assay type: cell-based, human; conditions: human healthy cells, MTT, 72 h, two concentrations 50–100 µM
Description: as §1, §2, §3

[9] = test system: a variety of cancer cell lines; test: IC50 determination (MTT test), variety of cancer cell lines; assay type: cell-based; conditions: Homo sapiens, 72 h, read-out: IC50 range on a variety of cancer cell lines
Description: as §1
as §4, with “In vitro experiments were carried out in triplicate. GraphPad prism version 9.0 was used to determine the IC50. The IC50 data are presented as mean (±) standard deviation (SD).” left out

[10] = test system: influenza virus A/Puerto Rico/8/34 (H1N1); test: Time-of-addition experiment in MDCK cells; assay type: cell-based; conditions: m.o.i. 10, addition from -2 h to 6 hpi
[11] = H1N1, infected MDCK cells, m.o.i. 0.01, 48 h, 50% cell protection, read-out: IC50

SMILES	IC50 [1, 11] [µM]	CC50 (MDCK cells) [µM]	IC50 (HCT116) [µM]	IC50 (A549 [3]) [µM]	CC50 at 48 h (in vitro) [µM]	IC50 (MCF7) [µM]	IC50 (SKBR3) [µM]	IC50 (SK-MEL-28) [µM]	IC50 (HEK-293) [µM]	cytotoxicity EMT6 (EMT6)	IC50 (DU145 [6]) [µM]	IC50 (HT-29) [µM]	IC50 (DU145 [4]) [µM]	IC50 at 72 h [7] [µM]	IC50 at 72 h [8] [µM]	IC50 (A549 [5]) [µM]	further results
NC12CC3CC(CC(C3)C1)C2 [Amantadine, reference compound]	64 ± 5	284 ± 21															
COc1ccc(C2=NO[C@]3(CC/C=C(\C)CC[C@@H]4[C@@H]3CC4(C)C)C2)cc1 [Compound 17a, (1S,2R,9R,E)-3′-(4-Methoxyphenyl)-6,10,10-trimethyl-4′H-spiro[bicyclo [7.2.0]undecane-2,5′-isoxazol]-5-ene]	8.03 ± 1.1		39.4 ± 2.8	30.7 ± 2.1	37 ± 2.2	> 50	36.5 ± 3.2	38.9 ± 3.9	44.3 ± 4.1	+ *	42.6 ± 3.4	47.1 ± 3					toxicity to all cells [2]: extremely toxic, killing all cells within 48 h; cytotoxicity DU145 (DU145 [4]): + *; cytotoxicity VA-13 (VA-13): + *; cytotoxicity HEK293 (HEK293): + *; cytotoxicity A549 (A549 [5]): + *
C=C1CC[C@@H]2C(c3ccc(OC)cc3)=NO[C@@]2(C)CC[C@@H]2[C@@H]1CC2(C)C [Compound 17b, (3aR,6aS,8aR,10aS)-3-(4-methoxyphenyl)-8,8,10a-trimethyl-6-methylene-3a,5,6,6a,7,8,8a,9,10,10a-decahydro-4H-cyclobuta [5,6]cyclonona [1,2-d]isoxazole]	> 12.8				27 ± 2.4								< 50	< 50	< 50	< 50	IC50 [2]: < 50 µM
CC1=CCCC2(CC(C)=NN2c2ccccc2)C2CC(C)(C)C2CC1 [Compound 21a, (1S,2R,9R,E)-5′,6,10,10-Tetramethyl-2′-phenyl-2′,4′-dihydrospiro[bicyclo [7.2.0]undecane-2,3′-pyrazol]-5-ene]	6.25 ± 0.7		22.4 ± 0.8	21.2 ± 0.9	28 ± 1.9	> 50	12.3 ± 1	24.9 ± 1.3	14.2 ± 0.9	+ *	18.8 ± 0.4	39.4 ± 2.1					toxicity to all cells [2]: extremely toxic, killing all cells within 48 h; IC50 [9]: 12.3 to 39.4 µM; cytotoxicity DU145 (DU145 [4]): + *; cytotoxicity VA-13 (VA-13): + *; cytotoxicity HEK293 (HEK293): + *; cytotoxicity A549 (A549 [5]): + *
COc1cccc(OC)c1C1=NN(c2c(Cl)cc(Cl)cc2Cl)[C@]2(CC/C=C(\C)CC[C@@H]3[C@@H]2CC3(C)C)C1 [Compound 23a, (1S,2R,9R,E)-5′-(2,6-Dimethoxyphenyl)-6,10,10-trimethyl-2′-(2,4,6-trichlorophenyl)-2′,4′-dihydrospiro[bicyclo [7.2.0]undecane-2,3′-pyrazol]-5-ene]	> 5.59		> 50	33.4 ± 2.2	10.2 ± 0.8	> 50	> 50	> 50	39.2 ± 3	+ *	28.8 ± 1.2	45 ± 1.9	< 50	< 50	< 50	< 50	IC50 [2]: < 50 µM; IC50 HCT116 (HCT116): did not show any cytotoxic effects; IC50 SK-MEL-28 (SK-MEL-28): did not show any cytotoxic effects; toxicity against EMT6 (EMT6; initial testing): extremely toxic
CC1(C)C[C@H]2[C@H]1CC[C@]1(C)ON=C(c3ccc(Cl)cc3)[C@H]1CC[C@@]21CC(c2ccc(Cl)cc2)=NO1 [Compound 25, (3aR,6R,6aS,8aR,10aS)-3,3′-Bis(4-chlorophenyl)-8,8,10a-trimethyl-3a,4,5,6a,7,8,8a,9,10,10a-decahydro-4′H-spiro[cyclobuta [5,6]cyclonona [1,2-d]isoxazole-6,5′-isoxazole]]	34.1 ± 4.4		> 50	> 50	426 ± 26.9	> 50	> 50	> 50	> 50		> 50	> 50	50 to 100	> 50	> 50	50 to 100	IC50 HCT116 (HCT116): did not show any cytotoxic effects; toxicity to DU145 (DU145 [4]; initial testing): harmful; latest time of addition with virus-inhibiting activity [10]: ≤ 6 hpi; toxicity to A549 (A549 [5]; initial testing): harmful; IC50 SK-MEL-28 (SK-MEL-28): did not show any cytotoxic effects
CC(N)C1C[C@@H]2CC[C@H]1C2 (stereo partly shown) [Deitiforin, reference compound]		1270 ± 82															
NC(=O)c1ncn([C@@H]2O[C@H](CO)[C@@H](O)[C@H]2O)n1 [Ribavirin, reference compound]	25	> 2000															
CC(N)C12CC3CC(CC(C3)C1)C2 (stereo not shown) [Rimantadine, reference compound]		335 ± 27															IC50 ([1]; H1N1, MDCK, 48 h): 67 ± 4.9 µM

Source: paper PMC11545984, “1,3-Dipolar Cycloaddition of Nitrile Oxides and Nitrilimines to (−)-β-Caryophyllene: Stereoselective Synthesis of Polycyclic Derivatives and Their Biological Testing” (International Journal of Molecular Sciences, 2024)
